Measured values: patent publication US7078499B2, “Nucleotide analogues comprising a reporter moiety and a polymerase enzyme blocking moiety” (GE Healthcare UK Limited, priority 2000, dated 2006)

The molecules below were run against T1, Pfu DNA polymerase (Pyrococcus furiosus, UniProt P61875) (assay: Thermostable DNA polymerase primer extension, Pfu). Conditions: DNA template, TTP replaced entirely by test compound, 45° C. for 20–40 minutes.
T1 construct: purchased Stratagene Ltd
T1 sequence (P61875 1-775): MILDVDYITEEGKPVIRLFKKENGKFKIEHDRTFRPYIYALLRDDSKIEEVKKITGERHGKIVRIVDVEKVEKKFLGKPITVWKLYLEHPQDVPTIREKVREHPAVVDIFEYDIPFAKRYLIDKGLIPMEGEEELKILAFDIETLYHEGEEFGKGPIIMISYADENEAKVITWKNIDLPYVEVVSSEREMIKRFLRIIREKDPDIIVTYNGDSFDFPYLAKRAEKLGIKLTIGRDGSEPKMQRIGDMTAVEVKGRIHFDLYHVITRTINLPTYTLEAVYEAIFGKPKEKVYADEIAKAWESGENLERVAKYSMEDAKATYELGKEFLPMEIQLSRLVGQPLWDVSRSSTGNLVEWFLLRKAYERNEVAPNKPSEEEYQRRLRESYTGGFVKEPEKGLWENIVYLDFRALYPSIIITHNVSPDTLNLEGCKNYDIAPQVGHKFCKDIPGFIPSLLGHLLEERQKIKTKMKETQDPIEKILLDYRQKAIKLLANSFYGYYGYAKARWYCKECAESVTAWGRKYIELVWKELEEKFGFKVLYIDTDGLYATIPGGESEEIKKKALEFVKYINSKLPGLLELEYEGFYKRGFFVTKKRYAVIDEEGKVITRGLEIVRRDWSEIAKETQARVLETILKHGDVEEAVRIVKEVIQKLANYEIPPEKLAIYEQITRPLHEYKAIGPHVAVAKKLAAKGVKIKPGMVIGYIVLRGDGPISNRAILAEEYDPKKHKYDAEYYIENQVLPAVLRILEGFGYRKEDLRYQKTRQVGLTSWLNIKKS
Format: biochemical
Design: key: −: No extension within assay time; +/−: up to 25% of primer extended by at least one base within assay time; +: up to 50% of primer extended by at least one base within assay time; ++: up to 75% of primer extended by at least one base within assay time; +++: essentially all primer extended by at least one base within assay time
Procedure: DNA polymerase assays were performed using Sequence 1 as primer and Sequence 2 as template. • Sequence 1 5′[Cy3]TAACTCATTAACAGGATC 3′ • Sequence 2 5′AT TCGCGGTATTCTGGTATGAAGCTTTTAGATCCTGTTAATGAGTTA GTA3′
The template (Sequence 2) was designed such that the base (underlined) immediately adjacent to the 3′ end of the hybridised primer is complementary to the nucleotide test compound. Nucleotide test compounds were compounds (6) (4′-C-(glycylaminomethyl)thymidine triphosphate), (8) (4′-C-(N-trifluoroacetyaminomethyl)thymidine triphosphate) and (9) (4′-C-(aminomethyl)thymidine triphosphate) as described above.
Primer extension reactions were performed using the above primers in the presence of 40 to 80 μM of nucleotide triphosphates. Positive control reactions contained all four native nucleotide triphosphates. For the other reactions the TTP was replaced with either a 2:1 ratio of […] for the terminator control, or entirely by the test compound The enzymes were used at a final concentration of 0.175 units/μl and a magnesium ion concentration of 2.5 mM in buffers supplied by the manufacturer. The primer and template concentrations were 0.5 pmol/μl and 2 pmol/μl respectively.
Extension reactions with thermophilic enzymes were performed by initially denaturing the fully assembled reactions at 70° C. for 5 min. followed by 45° C. for 20–40 minutes. The following enzymes were used: Taq DNA polymerase (Taq); Thermosequenase (TS); Thermosequenase II (TSII); Thermosequenase E (TSE), Tfl DNA polymerase (Tfl); Tth DNA polymerase (Tth), deltaTts DNA polymerase (deltaTts), deltaTts D DNA polymerase (dettaTTSD) (all from APBiotech); Pfu DNA polymerase (Pfu) (Stratagene Ltd); Vent™ DNA polymerase (Vent) (New England Biolabs).
The reactions were stopped by adding a 0.5 volume aliquot of 80% formamide containing 0.1% (w/v) bromophenol blue and 0.1% (w/v) cresol blue. […]
Gels were scanned for Cy3 fluorescence on a Molecular Dynamics Fluorimager and the data analysed using Molecular Dynamics ImageQuant 5 software. […]
“4′-C-(Aminomethyl)thymidine triphosphate [compound (9)]” was tested, and the “primer extended by at least one base within assay time (grade)” value (from here on “primer extended”) was “−”.
For “4′-C-(Glycylaminomethyl)thymidine triphosphate [compound (6)]”, the “primer extended” value was “−”.
In the case of `Cc1cn([C@H]2C[C@H](O)[C@@](CNC(=O)C(F)(F)F)(COP(=O)(O)OP(=O)(O)OP(=O)(O)O)O2)c(=O)[nH]c1=O` [compound (8), 4′-C-(N-trifluoroacetylaminomethyl)thymidine triphosphate], the “primer extended” value is reported as “−”.
